Data on 2 molecules can be found in EP4364726A1, “METHOD FOR TREATING A CANCER AND/OR CANCER METASTASIS” (Nano Targeting & Therapy Biopharma Inc., priority 2022, dated 2024).

The subject of data set [1] is chicken embryo chorioallantoic membrane (CAM) tumor model. The data set is described as follows: Chorioallantoic membrane (CAM) analysis for angiogenesis. The settings on record: administered on day 12, observed days 14 and 16. It is filed as in vivo. The procedure:
To evaluate the effect of MSNs on tumor angiogenesis, chicken embryo chorioallantoic membrane (CAM) tumor model was used. The fertilized eggs were incubated in the incubator for 10 days, then a small window was opened in the eggshell and the cancer cells were implanted on the CAM membrane near the aorta. MSN or Doxorubicin (DOX) was administered on day 12 when the tumor was formed and the angiogenesis near the tumor was observed on days 14 and 16.

For data set [2], the system named is luciferase-expressing HCT-116 cells. The data set is described as follows: Orthotopic colorectal cancer metastasis model (cells injected into cecum wall). It is filed as in vivo, mice. The settings on record: orthotopic HCT-116-luc, 40 mg/kg twice per week, 8 administrations.
Experimental: 2×10^6 luciferase-expressing HCT-116 cells were directly injected into the wall of the cecum with surgery to establish the orthotopic colorectal cancer metastasis model, this model spontaneously produces highly metastatic tumors in adjacent intestinal tissues, peritoneum, and distance metastasis (spleen, kidney, liver, and diaphragm). Tumor-bearing mice received IRI and IRI@NTT2_186k at dose levels of 40 mg/kg twice per week for a total of 8 administrations. The tumor growth and metastasis were observed by the IVIS system once a week and body weight was observed over the study period. To assess overall survival, animals were monitored up to the point of spontaneous death or approaching moribund status.
For data set [3] the following is noted: cited from earlier work.

`COc1cccc2c1C(=O)c1c(O)c3c(c(O)c1C2=O)C[C@@](O)(C(=O)CO)C[C@@H]3O[C@H]1C[C@H](N)[C@H](O)[C@H](C)O1` [DOX, Doxorubicin]: the “blood vessels near the tumor” value in data set [1] is “blood vessels exhibited disintegration and decreased density”.

Take `CCc1c2c(nc3ccc(OC(=O)N4CCC(N5CCCCC5)CC4)cc13)-c1cc3c(c(=O)n1C2)COC(=O)[C@]3(O)CC` [IRI, irinotecan]: in data set [2], the “tumor course once treatment was discontinued” value is “tumor relapse and tumor metastases were observed”; the tumor growth rate entry is recorded as “slower tumor growth rate compared to the control group”. The “inhibition of primary tumor growth and metastases” value in data set [2] (IVIS) is “inefficient inhibition of tumor growth and metastases”. In addition, in data set [3], the pka result is given as “about 10.9”.
